Measured values as given in US9708314B2, “Heterocyclic amide compound” (NISSAN CHEMICAL INDUSTRIES, LTD., priority 2013, dated 2017).

Assays:
Format in all cases: in vivo
Cyperus difformis = assay: Test Example 3: herbicidal effect by application to foliage (Wagner pot, water depth 0.1-0.5 cm); conditions: Nineteenth Table; application to foliage; application herbicide amount 320 g/ha
Outline: (§1)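 Greenhouse pot test, 25–30 °C, alluvial soil. Sown seedlings grown 14 days then sprayed on leaves and stems with emulsion diluted to target g/ha. Rating at 3 weeks, 0–5 scale (0 ≤5%, 5 ≥90%).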

[1] = system: Echinochloa crus-galli var. crus-galli; assay: as above; conditions: Nineteenth Table; application to foliage; application herbicide amount 320 g/ha
Outline: as §1

Leptochloa chinensis = assay: as above; conditions: Nineteenth Table; application to foliage; application herbicide amount 320 g/ha
Outline: as §1

Abutilon theophrasti = assay: Test Example 4: herbicidal effect by application to foliage (diluvial soil, plastic box)
Outline: (§2)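 Seeds sown in sterilized diluvial soil, covered ~1.5 cm, grown 14 days in greenhouse at 25° C. to 30° C. Emulsion formulation diluted in water to set rate (g/ha) and sprayed onto stems and leaves. Effect scored visually 3 weeks later on 0–5 scale (5 = ≥90% herbicidal ratio, 0 = ≤5%).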

Lolium multiflorum Lam. = assay: as above
Outline: as §2

Alopecurus myosuroides = assay: as above
Outline: as §2

Apera spica-venti. = assay: as above
Outline: as §2

[2] = system: Echinochloa crus-galli var. crus-galli; assay: as above
Outline: as §2

Veronica persica = assay: as above; conditions: Application herbicide amount 320 g/ha
Outline: as §2

Galium spurium = assay: as above
Outline: as §2

Digitaria ciliaris = assay: as above
Outline: as §2

Setaria viridis = assay: as above
Outline: as §2

Avena fatua = assay: as above
Outline: as §2

Chenopodium album = assay: as above
Outline: as §2

Brassica campestris L. = assay: Test Example 4: effect on crop by application to foliage (diluvial soil, plastic box)
Outline: as §2

Triticum aestivum = assay: as above
Outline: as §2

[3] = system: Beta vulgaris ssp. vulgaris; assay: as above
Outline: as §2

Zea mays = assay: as above
Outline: as §2

[4] = system: directly sowed Oryza sativa; assay: as above
Outline: as §2

Glycine max = assay: as above
Outline: as §2

Amaranthus retroflexus = assay: Test Example 4: herbicidal effect by application to foliage (diluvial soil, plastic box); conditions: application to foliage, application herbicide amount 320 g/ha
Outline: as §2

[5] = Application herbicide amount 320 g/ha
[6] = Application herbicide amount 320 g/ha, effect on crop
[7] = application to foliage, application herbicide amount 320 g/ha

SMILES: Cc1nnc(NC(=O)c2ccc(C(F)(F)F)n3c(CC(=O)NC(C)C)nnc23)o1 [1-061]
- E (herbicidal effect grade) (Cyperus difformis): 3 (Herbicidal ratio of 40% or more and less than 70%)
- H (herbicidal effect grade) [1]: 5 (Herbicidal ratio of 90% or more (almost completely withered))
- D (herbicidal effect grade) (Leptochloa chinensis): 4 (Herbicidal ratio of 70% or more and less than 90%)
- M (Abutilon theophrasti; [5]): 5 (Herbicidal ratio of 90% or more (almost completely withered))
- K (Lolium multiflorum Lam.; [5]): 1 (Herbicidal ratio of 5% or more and less than 20%)
- J (Alopecurus myosuroides; [5]): 1 (Herbicidal ratio of 5% or more and less than 20%)
- L (Apera spica-venti.; [5]): 1 (Herbicidal ratio of 5% or more and less than 20%)
- H [2, 5]: 4 (Herbicidal ratio of 70% or more and less than 90%)
- R (Veronica persica): 5 (Herbicidal ratio of 90% or more (almost completely withered))
- Q (Galium spurium; [5]): 4 (Herbicidal ratio of 70% or more and less than 90%)
- F (Digitaria ciliaris; [5]): 3 (Herbicidal ratio of 40% or more and less than 70%)
- G (Setaria viridis; [5]): 3 (Herbicidal ratio of 40% or more and less than 70%)
- I (Avena fatua; [5]): 3 (Herbicidal ratio of 40% or more and less than 70%)
- O (Chenopodium album; [5]): 5 (Herbicidal ratio of 90% or more (almost completely withered))
- g (Brassica campestris L.; [6]): 4 (Herbicidal ratio of 70% or more and less than 90%)
- e (Triticum aestivum; [6]): 0 (Herbicidal ratio of 5% or less (almost no effect))
- f [3, 6]: 4 (Herbicidal ratio of 70% or more and less than 90%)
- b (Zea mays; [6]): 1 (Herbicidal ratio of 5% or more and less than 20%)
- d [4, 6]: 4 (Herbicidal ratio of 70% or more and less than 90%)
- c (Glycine max; [6]): 1 (Herbicidal ratio of 5% or more and less than 20%)

SMILES: CN(CCC#N)c1nnc2c(C(=O)Nc3nnco3)ccc(C(F)(F)F)n12 [1-164]
- E (herbicidal effect grade) (Cyperus difformis): 4 (Herbicidal ratio of 70% or more and less than 90%)
- H (herbicidal effect grade) [1]: 5 (Herbicidal ratio of 90% or more (almost completely withered))
- D (herbicidal effect grade) (Leptochloa chinensis): 5 (Herbicidal ratio of 90% or more (almost completely withered))
- M: herbicidal effect on Abutilon theophrasti (Abutilon theophrasti; [7]): 4 (Herbicidal ratio of 70% or more and less than 90%)
- K: herbicidal effect on Lolium multiflorum Lam. (Lolium multiflorum Lam.; [7]): 1 (Herbicidal ratio of 5% or more and less than 20%)
- J: herbicidal effect on Alopecurus myosuroides (Alopecurus myosuroides; [7]): 1 (Herbicidal ratio of 5% or more and less than 20%)
- N: herbicidal effect on Amaranthus retroflexus (Amaranthus retroflexus): 5 (Herbicidal ratio of 90% or more (almost completely withered))
- L: herbicidal effect on Apera spica-venti. (Apera spica-venti.; [7]): 3 (Herbicidal ratio of 40% or more and less than 70%)
- H: herbicidal effect on Echinochloa crus-galli var. crus-galli [2, 7]: 5 (Herbicidal ratio of 90% or more (almost completely withered))
- Q: herbicidal effect on Galium spurium (Galium spurium; [7]): 4 (Herbicidal ratio of 70% or more and less than 90%)
- F: herbicidal effect on Digitaria ciliaris (Digitaria ciliaris; [7]): 5 (Herbicidal ratio of 90% or more (almost completely withered))
- G: herbicidal effect on Setaria viridis (Setaria viridis; [7]): 5 (Herbicidal ratio of 90% or more (almost completely withered))
- I: herbicidal effect on Avena fatua (Avena fatua; [7]): 3 (Herbicidal ratio of 40% or more and less than 70%)
- O: herbicidal effect on Chenopodium album (Chenopodium album; [7]): 5 (Herbicidal ratio of 90% or more (almost completely withered))
- g: effect on crop, Brassica campestris L. (Brassica campestris L.; [7]): 4 (Herbicidal ratio of 70% or more and less than 90%)
- e: effect on crop, Triticum aestivum (Triticum aestivum; [7]): 3 (Herbicidal ratio of 40% or more and less than 70%)
- f: effect on crop, Beta vulgaris ssp. vulgaris [3, 7]: 5 (Herbicidal ratio of 90% or more (almost completely withered))
- c: effect on crop, Zea mays (Zea mays; [7]): 0 (Herbicidal ratio of 5% or less (almost no effect))
- b: effect on crop, directly sowed Oryza sativa [4, 7]: 4 (Herbicidal ratio of 70% or more and less than 90%)
- d: effect on crop, Glycine max (Glycine max; [7]): 5 (Herbicidal ratio of 90% or more (almost completely withered))
